Results taken from patent publication US20130052268A1, “COMPOSITIONS AND METHODS FOR TREATMENT OF PARKINSON'S DISEASE” (THE MCLEAN HOSPITAL CORPORATION, priority 2010, published 2013).

Legend:
Format in all cases: cell-based, mouse
[1] = test system: ES cell-derived NP cells; assay: siRNA knock down of Lmx1a and Lmx1b in ES cell-derived NP and ND stage cells
Procedure: For siRNA transfection, NP stage cells were treated with 50 ng/ml FGF8 and 100 ng/ml SHH for 4 days to induce/proliferate mDA NPs, followed by transfection with siRNA using the Nucleofector (Amaxa, Walkersville, Md.) mouse stem cell kit with the program A-033 according to the manufacturer's instruction. Per transfection, 5×10^6 NP cells were treated with 480 pmol of siRNA, diluted in 10 ml of N3bFGF media (or N3 media for ND stage transfection) and plated in PLO/FN-coated multiwell plate, resulting in a final siRNA concentration of 48 nM. For ND stage transfection, cells were further differentiated in N3 media for 2 days before transfection. Multiple Stealth siRNAs were purchased from Invitrogen (Carlsbad, Calif.), screened for gene silencing efficiency by cotransfection with Lmx1a or Lmx1b-expressing plasmids and only siRNAs showing efficient gene silencing (>95%) was used for the experiments. The sequences of the siRNAs are as follows: the Lmx1a sense strand […] (SEQ ID NO: 1); the Lmx1a antisense strand […] (SEQ ID NO: 2); the Lmx1b sense strand […] (SEQ ID NO: 3); the Lmx1b antisense strand […] (SEQ ID NO: 4). Thirty hours after transfection, cells were fixed for immunocytochemistry or harvested for RNA preparation.
To further study the redundant function between Lmx1a and Lmx1b, experiments were carried out to knock down these genes using gene-specific siRNA approach. ES cell-derived NP cells were treated with SHH and FGF8 for 4 days to induce/proliferate mDA NPs, and then transfected with control siRNA, Lmx1a siRNA, Lmx1b siRNA or both Lmx1a/1b siRNAs using Nucleofector (Amaxa) and analyzed after 30 hours. […] This insignificant effect is in contrast with the robust induction effect observed in overexpression experiment (FIG. 5A). This can be explained by incomplete knockdown by siRNA and/or nonphysiological overexpression effect caused by retroviral transduction. […] Since Pitx3^+ cells were not yet detectable at this NP stage, the gene knockdown experiment was repeated at ND stage cells.

[2] = test system: SHH signaling; assay: Wnt1 induction of Lmx1a in the presence of the SHH signaling inhibitor cyclopamine, qPCR at NP stage; conditions: Wnt1-retrovirus transduced NP cells, 1 mM cyclopamine for 3 days
Procedure: FIG. 10A-B show interaction between SHH and other factors. […] J1 ES-derived NP cells were transduced with empty- or Wnt1-retrovirus and cultured in the absence or presence of […] cyclopamine for 3 days, and analyzed by qPCR at NP stage. […] NP stage cells were treated with 500 ng/ml of SHH or […] Cyclopamine for 6 hours and analyzed by qPCR.
(§1) It was previously shown that SHH treatment could ventralize chick intermediate midbrain explants, accompanied by induction of Lmx1a and other ventral midbrain phenotype (Andersson et al., 2006b). […] ES-derived NP cells were treated with 500 ng/ml SHH or 1 μM cyclopamine for 6 hours and analyzed by qPCR.

[3] = test system: SHH signaling; assay: Acute treatment of ES-derived NP cells with SHH or cyclopamine, qPCR; conditions: 6 hours
Procedure: For all other samples, total RNA was prepared using TriReagent (Sigma, St. Louis, Mo.) followed by further purification using RNeasy mini kit (Qiagen, Valencia, Calif.). For RT-PCR analysis, 2 ? g of RNA were transcribed into cDNA with the SuperScript™ II RT (Invitrogen, Carlsbad, Calif.) and oligo (dT) primers. For quantitative analysis of the expression level of mRNAs, real-time PCR analyses using SYBR green I were performed using a DNA engine Opticon™ (MJ Research, Waltham, Mass.). To reduce non-specific signals, oligonucleotides amplifying small amplicons were designed using the MacVector software (Oxford Molecular Ltd.: primers sequences are available upon request). Amplifications were performed in 25 μl containing 0.5 μM of each primer,
0.5×SYBR Green I (Molecular Probes, Oreg.), and 2 μl of 5 fold diluted cDNA. Fifty PCR cycles were performed with a temperature profile consisting of 95° C. for 30 sec, 55° C. for 30 sec, 72° C. for 30 sec, and 79° C. for 5 sec. The dissociation curve of each PCR product was determined to ensure that the observed fluorescent signals were only from specific PCR products. After each PCR cycle, the fluorescent signals were detected at 79° C. to melt primer dimers (Tms of all primer dimers used in this study were <76° C.). A standard curve was constructed using plasmid DNAs containing the GAPDH gene (from 10^2 to 10^8 molecules). The fluorescent signals from specific PCR products were normalized against that of the β-actin gene, and then relative values were calculated by setting the normalized value of control as 1 (or 100 in some cases). All reactions were repeated using more than three independent samples.
as §1

[4] = ND stage, 30 hrs after transfection
[5] = NP stage, 30 hours after transfection
[6] = NP stage, 30 hours after transfection, 48 nM siRNA
[7] = NP cells, 500 ng/ml SHH or 1 μM cyclopamine

## Lmx1a siRNA: Stealth siRNA, sense GAGGAGAGCAUUCAAGGCCUCGUUU (SEQ ID NO: 1), antisense SEQ ID NO: 2 (antisense AAACGAGGCCUUGAAUGCUCUCCUC; Stealth modification, further chemistry not given here)
[1]; [4]
  mRNA level of Lmx1a: significantly reduced
[1]; [5]
  Nurr1 gene expression: did not have significant effect
  Wnt1 gene expression: did not have significant effect
[1]; [6]
  mRNA level of Lmx1a: significantly reduced

## CC1=C2C[C@H]3[C@@H](CC=C4C[C@@H](O)CC[C@@]43C)[C@@H]2CC[C@]12O[C@@H]1C[C@H](C)CN[C@H]1[C@H]2C [cyclopamine]
[2]
  induction of Lmx1a gene expression by Wnt1: not affected
[3]; [7]
  Lmx1a mRNA levels: no significant changes
  Nurr1 mRNA levels: no significant changes
  TH mRNA levels: no significant changes
[3]; NP stage cells, 500 ng/ml SHH or μM Cyclopamine
  mRNA level of Gli1: reduced

## Lmx1b siRNA: Stealth siRNA, sense GGAACGACUCCAUCUUCCACGAUAU (SEQ ID NO: 3), antisense SEQ ID NO: 4 (antisense AUAUCGUGGAAGAUGGAGUCGUUCC; Stealth modification, further chemistry not given here)
[1]; [4]
  mRNA level of Lmx1b: significantly reduced
[1]; [5]
  Nurr1 gene expression: did not have significant effect
  Wnt1 gene expression: did not have significant effect
[1]; [6]
  mRNA level of Lmx1b: significantly reduced
